Reference: PMC10281575, “PfCRT mutations conferring piperaquine resistance in falciparum malaria shape the kinetics of quinoline drug binding and transport” (PLOS Pathogens, 2023)
Values joined by “and” are separate entries in the source; they are usually repeats but may differ in a detail not shown here. Equal values may be shown once.

Tests used:
[1] = biological target: T1, PfCRT^HB3 (Plasmodium falciparum, UniProt Q8IBZ9); test: Radiolabeled drug uptake in X. laevis oocytes expressing wild type PfCRT^HB3; type: cell-based; conditions: 50 μM CQ, pH 6.0
T1 construct: expressed in transfected cells; host or cells: Xenopus laevis oocytes injected with in vitro transcribed RNA (pSP64T)
Protocol: (§1) Adult female X. laevis frogs (purchased from NASCO) were anesthetized by submersion in a solution of 0.3% (w/v) 3-amino benzoate methanesulfonate for 15 min. Sections of the ovary were surgically removed and placed in Ca^2+-free ND96 buffer supplemented with 0.1% collagenase D (w/v; Roche), 0.5% BSA (w/v) and 9 mM Na2HPO4 at 18°C for 14–16 h while gently shaking. The oocytes were then washed several times with ND96 buffer (5 mM HEPES, pH 7.5, 96 mM NaCl, 2 mM KCl, 1.8 mM CaCl2, 1 mM MgCl2), supplemented with […] gentamycin. Healthy-looking stage V-VI oocytes were manually selected and randomly grouped for injection. A codon-optimized coding sequence of PfCRT was subcloned into the pSP64T expression vector and subsequently linearized using the restriction endonuclease BamHI or SalI (New England Biolabs GmbH). RNA for injection was transcribed in vitro using the mMESSAGE mMACHINE SP6 Transcription kit (Ambion), diluted with nuclease-free water to a final concentration of 0.6 μg/μL and stored at -80°C. RNA was injected using precision-bore glass capillary tubes (3.5-inch glass capillaries; Drummond Scientific Co.), which were pulled on a vertical puller (P-87 Flaming/Brown micropipette puller, Sutter Instrument Co.) and graduated. The micropipettes were connected to a microinjector (Nanoject II Auto-Nanoliter Injector, Drummond Scientific Co.). Injection was conducted under stereomicroscopic control. 50 nL of nuclease-free water alone (control oocytes) or 50 nL of nuclease-free water containing 30 ng of RNA was injected per oocyte. Injected oocytes were kept for 72 h at 18°C in ND96 buffer with two daily buffer changes before being used for further experiments.
(§2) Drug transport assays were performed as previously described. Briefly, measurements of radiolabeled drug uptake were made over 1 h, unless otherwise specified. […] Where specified, one or more unlabeled drugs were also present at the indicated concentrations. […] The uptake assays were terminated by removing the oocytes from the reaction medium and washing them three times with 2 mL of ice-cold ND96 buffer. Each oocyte was transferred to a separate scintillation vial and lysed by the addition of 200 μL of a 5% SDS solution. The radioactivity in the sample was measured using a liquid scintillation analyser Tri-Carb 4910 TR (PerkinElmer). Water-injected oocytes were analyzed in parallel as a negative control. The buffer from each condition was measured in duplicate in parallel to each experiment to transform counts per minute into pmol of drug. Drug uptake attributable to PfCRT was determined by subtracting the background uptake from water-injected oocytes from that of PfCRT-expressing oocytes. In all cases, at least three independent experiments were performed on oocytes from different frogs, and for each condition in an experiment, measurements were made from 10 oocytes per treatment.

[2] = biological target: T2, PfCRT^Dd2 (Plasmodium falciparum, UniProt Q8IBZ9, A220S/I356T/K76T/M74I/N326S/N75E/Q271E/R371I); test: Radiolabeled drug uptake (transport assay) in Xenopus laevis oocytes expressing PfCRT^Dd2; type: cell-based; parameters: expressed in transfected cells; host or cells: Xenopus laevis oocytes injected with in vitro transcribed RNA (pSP64T)
T2 sequence (Q8IBZ9 1-424 M74I/N75E/K76T/A220S/Q271E/N326S/I356T/R371I): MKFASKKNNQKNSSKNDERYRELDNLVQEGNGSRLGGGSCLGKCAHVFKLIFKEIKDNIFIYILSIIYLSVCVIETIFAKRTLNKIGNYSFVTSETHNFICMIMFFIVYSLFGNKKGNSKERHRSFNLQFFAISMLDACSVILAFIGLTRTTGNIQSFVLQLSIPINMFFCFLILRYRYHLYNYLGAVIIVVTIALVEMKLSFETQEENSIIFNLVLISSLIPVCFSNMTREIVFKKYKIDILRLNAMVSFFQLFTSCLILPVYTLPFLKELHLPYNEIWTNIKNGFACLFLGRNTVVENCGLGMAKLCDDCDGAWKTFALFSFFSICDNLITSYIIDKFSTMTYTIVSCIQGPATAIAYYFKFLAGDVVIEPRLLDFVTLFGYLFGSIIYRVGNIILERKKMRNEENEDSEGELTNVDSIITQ
Protocol: The two kinetic parameters were derived by fitting the Michaelis-Menten equation to the kinetic data (Table 1).
as §1, §2

[3] = total uptake, one value per biological replicate
[4] = water-injected uptake subtracted, per replicate
[5] = 50 μM CQ, pH 6.0, total uptake, one value per biological replicate
[6] = 50 μM CQ, pH 6.0, water-injected uptake subtracted, per replicate
[7] = 60 min, pH 6, per biological replicate

T1 sequence (Q8IBZ9 whole entry): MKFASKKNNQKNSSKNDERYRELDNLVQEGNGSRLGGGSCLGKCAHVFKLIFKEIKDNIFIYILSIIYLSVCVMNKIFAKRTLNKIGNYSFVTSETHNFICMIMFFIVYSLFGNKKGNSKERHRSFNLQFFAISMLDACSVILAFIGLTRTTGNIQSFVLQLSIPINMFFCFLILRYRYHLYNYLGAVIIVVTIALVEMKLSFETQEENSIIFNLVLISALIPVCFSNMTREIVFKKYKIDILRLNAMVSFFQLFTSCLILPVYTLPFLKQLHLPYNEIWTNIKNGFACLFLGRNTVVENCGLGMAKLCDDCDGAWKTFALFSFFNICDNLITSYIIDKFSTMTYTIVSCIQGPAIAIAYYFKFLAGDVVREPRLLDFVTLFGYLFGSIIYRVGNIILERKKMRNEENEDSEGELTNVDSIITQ

SMILES: CCN(CC)CCCC(C)Nc1ccnc2cc(Cl)ccc12 (centres unmarked) [CQ, chloroquine]
- PfCRTHB3 uptake of CQ at 10 min [1, 3]: 3.76 pmol oocyte-1 and 2.69 pmol oocyte-1 and 4.10 pmol oocyte-1 and 2.94 pmol oocyte-1
- PfCRTHB3 uptake of CQ at 30 min [1, 3]: 5.04 pmol oocyte-1 and 6.21 pmol oocyte-1 and 4.82 pmol oocyte-1
- PfCRTHB3 uptake of CQ at 60 min [1, 3]: 10.53 pmol oocyte-1 and 9.06 pmol oocyte-1 and 13.05 pmol oocyte-1 and 9.38 pmol oocyte-1
- PfCRTHB3 uptake of CQ at 90 min [1, 3]: 10.44 pmol oocyte-1 and 13.59 pmol oocyte-1 and 10.43 pmol oocyte-1
- PfCRTHB3 uptake of CQ at 120 min [1, 3]: 15.66 pmol oocyte-1 and 14.17 pmol oocyte-1 and 15.57 pmol oocyte-1
- PfCRTHB3 uptake of CQ at 180 min [1, 3]: 15.78 pmol oocyte-1 and 15.62 pmol oocyte-1 and 19.97 pmol oocyte-1
- PfCRTDd2_HB3-mediated CQ uptake at 60 min [1, 4]: 0.25 pmol oocyte-1 and -1.21 pmol oocyte-1 and 2.78 pmol oocyte-1 and -0.90 pmol oocyte-1
- PfCRTHB3-mediated CQ uptake at 10 min [1, 4]: 0.87 pmol oocyte-1 and -0.20 pmol oocyte-1 and 1.21 pmol oocyte-1 and 0.05 pmol oocyte-1
- PfCRTHB3-mediated CQ uptake at 30 min [1, 4]: 1.16 pmol oocyte-1 and -0.23 pmol oocyte-1 and 0.94 pmol oocyte-1 and -0.44 pmol oocyte-1
- PfCRTHB3-mediated CQ uptake at 90 min [1, 4]: -0.39 pmol oocyte-1 and 2.75 pmol oocyte-1 and -0.41 pmol oocyte-1
- PfCRTHB3-mediated CQ uptake at 120 min [1, 4]: 0.98 pmol oocyte-1 and -0.51 pmol oocyte-1 and 0.90 pmol oocyte-1
- PfCRTHB3-mediated CQ uptake at 180 min [1, 4]: -0.99 pmol oocyte-1 and -1.15 pmol oocyte-1 and 3.20 pmol oocyte-1
- PfCRTDd2-mediated CQ uptake at 10 µM CQ ([2]; 10 µM CQ, single replicates): 0.97 pmol oocyte-1 h-1 and 1.33 pmol oocyte-1 h-1 and 1.00 pmol oocyte-1 h-1
- PfCRTDd2 uptake of CQ at 10 min [2, 5]: 5.12 pmol oocyte-1 and 4.60 pmol oocyte-1 and 2.93 pmol oocyte-1 and 4.96 pmol oocyte-1
- PfCRTDd2 uptake of CQ at 30 min [2, 5]: 6.73 pmol oocyte-1 and 14.34 pmol oocyte-1 and 5.71 pmol oocyte-1
- PfCRTDd2 uptake of CQ at 60 min [2, 5]: 19.28 pmol oocyte-1 and 12.33 pmol oocyte-1 and 10.23 pmol oocyte-1 and 14.77 pmol oocyte-1
- PfCRTDd2 uptake of CQ at 90 min [2, 5]: 15.72 pmol oocyte-1 and 19.85 pmol oocyte-1 and 18.63 pmol oocyte-1 and 19.17 pmol oocyte-1
- PfCRTDd2 uptake of CQ at 120 min [2, 5]: 20.73 pmol oocyte-1 and 30.99 pmol oocyte-1 and 21.07 pmol oocyte-1
- PfCRTDd2 uptake of CQ at 180 min [2, 5]: 26.87 pmol oocyte-1 and 30.32 pmol oocyte-1 and 26.73 pmol oocyte-1 and 25.67 pmol oocyte-1
- PfCRTDd2-mediated CQ uptake at 10 min [2, 6]: 1.03 pmol oocyte-1 and 0.90 pmol oocyte-1 and 1.98 pmol oocyte-1 and 0.91 pmol oocyte-1
- PfCRTDd2-mediated CQ uptake at 30 min [2, 6]: 1.52 pmol oocyte-1 and 5.01 pmol oocyte-1 and 4.35 pmol oocyte-1
- PfCRTDd2-mediated CQ uptake at 60 min [2, 6]: 4.91 pmol oocyte-1 and 4.76 pmol oocyte-1 and 7.49 pmol oocyte-1 and 5.04 pmol oocyte-1
- PfCRTDd2-mediated CQ uptake at 120 min [2, 6]: 9.09 pmol oocyte-1 and 10.40 pmol oocyte-1 and 9.67 pmol oocyte-1
- PfCRTDd2-mediated CQ uptake at 180 min [2, 6]: 13.62 pmol oocyte-1 and 9.61 pmol oocyte-1 and 9.37 pmol oocyte-1 and 10.85 pmol oocyte-1
- PfCRTDd2-mediated CQ uptakeat 90 min [2, 6]: 7.12 pmol oocyte-1 and 4.31 pmol oocyte-1 and 9.50 pmol oocyte-1 and 9.09 pmol oocyte-1
- PfCRTDd2-mediated CQ uptake at 50 µM CQ ([2]; 50 µM CQ, single replicates): 3.98 pmol oocyte-1 h-1 and 2.97 pmol oocyte-1 h-1 and 3.90 pmol oocyte-1 h-1 and 4.91 pmol oocyte-1 h-1 and 4.76 pmol oocyte-1 h-1 and 7.49 pmol oocyte-1 h-1 and 10.46 pmol oocyte-1 h-1 and 5.04 pmol oocyte-1 h-1
- PfCRTDd2-mediated CQ uptake at 100 µM CQ ([2]; 100 µM CQ, single replicates): 9.74 pmol oocyte-1 h-1 and 9.30 pmol oocyte-1 h-1 and 7.99 pmol oocyte-1 h-1
- PfCRTDd2-mediated CQ uptake at 200 µM CQ ([2]; 200 µM CQ, single replicates): 17.86 pmol oocyte-1 h-1 and 9.84 pmol oocyte-1 h-1 and 13.66 pmol oocyte-1 h-1 and 12.77 pmol oocyte-1 h-1
- PfCRTDd2-mediated CQ uptake at 300 µM CQ ([2]; 300 µM CQ, single replicates): 20.89 pmol oocyte-1 h-1 and 20.25 pmol oocyte-1 h-1 and 12.53 pmol oocyte-1 h-1
- PfCRTDd2-mediated CQ uptake at 400 µM CQ ([2]; 400 µM CQ, single replicates): 20.30 pmol oocyte-1 h-1 and 20.79 pmol oocyte-1 h-1 and 20.10 pmol oocyte-1 h-1
- PfCRTDd2-mediated CQ uptake at 500 µM CQ ([2]; 500 µM CQ, single replicates): 20.49 pmol oocyte-1 h-1 and 20.91 pmol oocyte-1 h-1 and 20.75 pmol oocyte-1 h-1 and 25.01 pmol oocyte-1 h-1
- PfCRTDd2-mediated CQ uptake at 10 µM CQ [2, 7]: 0.97 pmol oocyte-1 h-1 and 1.33 pmol oocyte-1 h-1 and 1.00 pmol oocyte-1 h-1
- PfCRTDd2-mediated CQ uptake at 50 µM CQ [2, 7]: 3.98 pmol oocyte-1 h-1 and 2.97 pmol oocyte-1 h-1 and 3.90 pmol oocyte-1 h-1 and 4.91 pmol oocyte-1 h-1 and 4.76 pmol oocyte-1 h-1 and 7.49 pmol oocyte-1 h-1 and 10.46 pmol oocyte-1 h-1 and 5.04 pmol oocyte-1 h-1
- PfCRTDd2-mediated CQ uptake at 100 µM CQ [2, 7]: 9.74 pmol oocyte-1 h-1 and 9.30 pmol oocyte-1 h-1 and 7.99 pmol oocyte-1 h-1
- PfCRTDd2-mediated CQ uptake at 200 µM CQ [2, 7]: 17.86 pmol oocyte-1 h-1 and 9.84 pmol oocyte-1 h-1 and 13.66 pmol oocyte-1 h-1 and 12.77 pmol oocyte-1 h-1
- PfCRTDd2-mediated CQ uptake at 300 µM CQ [2, 7]: 20.89 pmol oocyte-1 h-1 and 20.25 pmol oocyte-1 h-1 and 12.53 pmol oocyte-1 h-1
- PfCRTDd2-mediated CQ uptake at 400 µM CQ [2, 7]: 20.30 pmol oocyte-1 h-1 and 20.79 pmol oocyte-1 h-1 and 20.10 pmol oocyte-1 h-1
- PfCRTDd2-mediated CQ uptake at 500 µM CQ [2, 7]: 20.49 pmol oocyte-1 h-1 and 20.91 pmol oocyte-1 h-1 and 20.75 pmol oocyte-1 h-1 and 25.01 pmol oocyte-1 h-1
- Vmax, maximal velocity of drug transport ([2]; Michaelis-Menten fit, 10-500 μM drug, 60 min, pH 6): 33 ± 1 pmol oocyte^-1 h^-1
- Km ([2]; Michaelis-Menten fit, 10-500 μM drug, 60 min, pH 6, read-out: KM, Michaelis constant): 260 ± 10 µM
- PfCRTDd2-mediated CQ transport ([2]; S6 Fig, per biological replicate): 7.120 pmol oocyte-1 h-1 and 4.130 pmol oocyte-1 h-1 and 5.320 pmol oocyte-1 h-1
